This note sets out measurements from ChEMBL document CHEMBL1125072, “Synthesis and biochemical evaluation of tritium-labeled 1-methyl-N-(8-methyl-8-azabicyclo[3.2.1]oct-3-yl)-1H-indazole-3-carboxa mide, a useful radioligand for 5HT3 receptors” (J Med Chem, 1990).

A value given as a limit tells only on which side of the number the result lay.

The target of test [1] is T1, Serotonin 3 (5-HT3) receptor (Rattus norvegicus, UniProt P35563+Q9JJ16).
T1 sequence (P35563 whole entry): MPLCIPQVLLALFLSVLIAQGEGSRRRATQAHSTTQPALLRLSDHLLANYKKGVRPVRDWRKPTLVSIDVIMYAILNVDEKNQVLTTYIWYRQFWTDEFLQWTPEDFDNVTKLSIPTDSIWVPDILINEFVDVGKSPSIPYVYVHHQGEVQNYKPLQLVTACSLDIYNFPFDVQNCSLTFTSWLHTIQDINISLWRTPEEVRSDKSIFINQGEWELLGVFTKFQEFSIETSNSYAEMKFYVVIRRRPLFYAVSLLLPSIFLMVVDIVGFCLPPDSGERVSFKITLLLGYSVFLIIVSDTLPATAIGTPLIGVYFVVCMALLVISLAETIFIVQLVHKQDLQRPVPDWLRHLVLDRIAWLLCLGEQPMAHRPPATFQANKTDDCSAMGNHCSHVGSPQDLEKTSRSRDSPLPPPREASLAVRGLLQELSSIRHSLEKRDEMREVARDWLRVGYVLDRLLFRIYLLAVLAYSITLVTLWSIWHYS
T1 sequence (Q9JJ16 whole entry): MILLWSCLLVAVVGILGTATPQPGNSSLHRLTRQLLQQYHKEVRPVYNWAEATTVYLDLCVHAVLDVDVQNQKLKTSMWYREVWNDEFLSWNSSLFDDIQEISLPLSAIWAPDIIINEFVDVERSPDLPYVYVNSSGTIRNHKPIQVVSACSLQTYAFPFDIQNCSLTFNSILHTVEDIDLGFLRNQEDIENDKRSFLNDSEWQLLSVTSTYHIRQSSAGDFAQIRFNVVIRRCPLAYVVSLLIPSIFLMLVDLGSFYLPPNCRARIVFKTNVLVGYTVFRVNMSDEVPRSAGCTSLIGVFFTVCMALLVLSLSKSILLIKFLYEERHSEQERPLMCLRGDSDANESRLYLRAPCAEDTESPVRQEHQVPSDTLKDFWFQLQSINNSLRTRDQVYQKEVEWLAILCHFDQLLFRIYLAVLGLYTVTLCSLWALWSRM
The test can be described thus: pKi value for inhibition of [3H]LY-278584 binding to 5-hydroxytryptamine 3 receptor. Type of test: protein-complex assay.

The target in test [2] is T1, Serotonin 3 (5-HT3) receptor. The test can be described thus: Inhibitory activity against 5-hydroxytryptamine 3 receptor in rat cortical membranes using [3H]- 1-Methyl-1H-indazole-3-carboxylic acid (8-methyl-8-aza-bicyclo[3.2.1]oct-3-yl)-amide as a radioligand. The test is classed as cell membranes.
In test [3] the test system is Rattus norvegicus. The test can be described thus: Percentage inhibition 5-HT- mediated bradycardia in rat after 3 ug/Kg of compound administered intravenously. The test is classed as functional.
The target of test [4] is T2, 5-hydroxytryptamine receptor 1A (Rattus norvegicus, UniProt P19327).
T2 sequence (P19327 whole entry): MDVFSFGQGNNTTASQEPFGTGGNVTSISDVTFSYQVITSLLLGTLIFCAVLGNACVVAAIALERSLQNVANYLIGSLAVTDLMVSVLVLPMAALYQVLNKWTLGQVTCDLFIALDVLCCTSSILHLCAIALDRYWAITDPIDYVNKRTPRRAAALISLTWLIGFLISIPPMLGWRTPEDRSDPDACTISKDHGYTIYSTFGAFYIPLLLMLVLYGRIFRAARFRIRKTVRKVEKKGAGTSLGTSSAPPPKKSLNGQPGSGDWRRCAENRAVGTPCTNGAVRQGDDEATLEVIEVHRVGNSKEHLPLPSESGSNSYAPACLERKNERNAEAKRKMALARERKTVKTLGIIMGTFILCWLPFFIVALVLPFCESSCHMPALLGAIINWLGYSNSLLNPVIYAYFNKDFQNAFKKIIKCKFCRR
The test can be described thus: Inhibitory activity against 5-hydroxytryptamine 1A receptor in rat cortical membranes using [3H]8-OH-DPAT as a radioligand. The test is classed as cell membranes.

Test [5] concerns the target 5-hydroxytryptamine receptor 1B (Rattus norvegicus, UniProt P28564). The test can be described thus: Inhibitory activity against 5-hydroxytryptamine 1B receptor in rat cortical membranes using [3H]5-HT as a radioligand. Type of test: cell membranes.
The subject of test [6] is Rattus norvegicus. The test can be described thus: Effective dose required to reduce von benzold jarisch reflex response to 5-HT was determined; Value ranges from 10-30 ug/Kg. The test is classed as functional.

5-hydroxytryptamine receptor 1B, sequence (P28564 whole entry): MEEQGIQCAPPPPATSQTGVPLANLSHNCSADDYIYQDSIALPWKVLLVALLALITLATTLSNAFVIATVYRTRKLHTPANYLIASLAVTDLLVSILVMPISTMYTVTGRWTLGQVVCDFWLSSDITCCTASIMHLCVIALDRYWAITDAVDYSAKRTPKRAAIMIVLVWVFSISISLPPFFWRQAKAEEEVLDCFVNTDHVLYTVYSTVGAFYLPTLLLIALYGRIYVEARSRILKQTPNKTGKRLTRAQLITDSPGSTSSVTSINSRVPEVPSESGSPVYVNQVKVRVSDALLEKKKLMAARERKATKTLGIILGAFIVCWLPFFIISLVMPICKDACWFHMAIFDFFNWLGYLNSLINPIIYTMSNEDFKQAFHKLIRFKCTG

Take `CN1[C@@H]2CC[C@H]1C[C@@H](OC(=O)c1c[nH]c3ccccc13)C2` [TROPISETRON]: the inhibitory constant (Ki) is 1.29 nM in test [1] and 1.28 nM in test [2]. For the same compound, in the test on Rattus norvegicus [3], the Inhibition turned out to be 66%.

Turning to `CCN(CC)CCNC(=O)c1cc(Cl)c(N)cc1OC` [METOCLOPRAMIDE], the figures for the inhibition constant Ki in test [1] and in test [2] were 501 nM and 502 nM, respectively.

For the compound `c1ccc2nc(N3CCNCC3)ccc2c1` [QUIPAZINE], the Ki was 3.02 nM in test [1] and 3.04 nM in test [2].

On to `CN1C2CCCC1CC(NC(=O)c1nn(C)c3ccccc13)C2` (stereo not drawn) [GRANISETRON], for which the Ki in test [4] and in test [5] was greater than 1000 nM in each case. The compound further gave a 50% effective dose (ED50) in the test on Rattus norvegicus [6] of 0.01 mg/kg.

As for `CN1[C@@H]2CC[C@H]1C[C@@H](OC(=O)c1cc(Cl)cc(Cl)c1)C2` [BEMESETRON], the figures for the inhibition constant Ki in test [1] and in test [2] were 25.7 nM and 26 nM, respectively.

For `CN1C2CCC1CC(NC(=O)c1c3ccccc3nn1C)C2` (stereo not drawn), the inhibition constant (Ki) in test [1] and in test [2] was 1050 nM in each case.

For the compound `COc1cc(N)c(Cl)cc1C(=O)NC1CN2CCC1CC2` (stereo not drawn) [ZACOPRIDE], the Ki in test [1] was 0.417 nM; in test [2] it was 0.42 nM.

Turning to `CN1C2CCC1CC(NC(=O)c1n[nH]c3ccccc13)C2` (stereo not drawn), the results for the inhibition constant Ki in test [1] and in test [2] were 4.27 nM and 4.26 nM, respectively.
